The values that follow come from the Kinase Knowledgebase extract (Sharma et al. 2016).

The structures appear in SMILES notation.

The assay addresses MAPK14 (UniProt Q16539). The assay is described as follows: p38 Kinase Inhibition Assay.

Chain of MAPK14 (Q16539 whole entry, looked up): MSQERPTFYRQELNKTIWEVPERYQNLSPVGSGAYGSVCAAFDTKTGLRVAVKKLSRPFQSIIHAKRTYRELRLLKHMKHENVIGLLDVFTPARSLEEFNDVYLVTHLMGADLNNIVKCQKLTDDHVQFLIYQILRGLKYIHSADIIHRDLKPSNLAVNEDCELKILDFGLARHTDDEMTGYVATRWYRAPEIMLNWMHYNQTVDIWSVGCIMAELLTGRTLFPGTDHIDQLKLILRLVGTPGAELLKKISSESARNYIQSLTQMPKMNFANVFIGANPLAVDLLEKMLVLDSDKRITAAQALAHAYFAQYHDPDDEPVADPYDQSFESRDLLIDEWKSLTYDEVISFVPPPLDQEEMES

In turn, `Cc1ccccc1C(=O)N1CCC(Cc2ccccc2)CC1` showed an IC50 of 200 to 1500 nM. As to `CNc1ccccc1C(=O)N1CCC(Cc2ccccc2)CC1`, the IC50 lay within 200 to 1500 nM. Compound `CN(C)c1cccc(C(=O)N2CCC(Cc3ccccc3)CC2)c1` registered a 50% inhibitory concentration (IC50) of 200 to 1500 nM. `O=C(c1ccccc1)N1CCC(Cc2ccccc2)CC1` displayed a concentration for half-maximal inhibition (IC50) of 200 to 1500 nM. Consider `CN(C)c1ccc(C(=O)N2CCC(Cc3ccccc3)CC2)cc1`, for which the IC50 was in the range of 200 to 1500 nM. `COc1ccc(C(=O)N2CCC(Cc3ccccc3)CC2)c(OC)c1` had an IC50 of 200 to 1500 nM.

Compound `CN(C)c1ccccc1C(=O)N1CCC(Cc2ccccc2)CC1` gave an IC50 of 200 to 1500 nM. On to `O=C(c1ccccc1I)N1CCC(Cc2ccccc2)CC1`, for which the half-inhibitory concentration (IC50) lay within 200 to 1500 nM. Next, `CC(=O)Nc1ccc(C(=O)N2CCC(Cc3ccccc3)CC2)cc1`: 200 to 1500 nM; `CNc1ccc(C(=O)N2CCC(Cc3ccccc3)CC2)c(Cl)c1`: 200 to 1500 nM.

Take `Nc1ccc(C(=O)N2CCC(Cc3ccccc3)CC2)c(Cl)c1`: the IC50 lay within 200 to 1500 nM. Next, `O=C(c1ccccc1Cl)N1CCC(Cc2ccccc2)CC1`: 200 to 1500 nM. Next, `CC1(Cc2ccccc2)CCN(C(=O)c2ccccc2Br)CC1`: 200 to 1500 nM; `COc1cccc(OC)c1C(=O)N1CCC(Cc2ccccc2)CC1`: 200 to 1500 nM; `S=C(c1ccccc1)N1CCC(Cc2ccccc2)CC1`: 200 to 1500 nM. The compound `Nc1ccc(C(=O)N2CCC(Cc3ccccc3)CC2)cc1` displayed an IC50 of 200 to 1500 nM. Next, `O=C(c1ccccc1O)N1CCC(Cc2ccccc2)CC1`: 200 to 1500 nM. Next, `O=CNc1ccc(C(=O)N2CCC(Cc3ccccc3)CC2)cc1`: 200 to 1500 nM; `O=C(c1ccccc1Br)N1CCC(Cc2ccccc2)CC1`: 200 to 1500 nM; `CN(C)c1ccc(C(=O)N2CCC(Cc3ccccc3)CC2)c(Cl)c1`: 200 to 1500 nM.
